Experimental data reported in BindingDB's records for doi:10.1016/j.bmcl.2009.09.123 (Genomics Institute of The Novartis Research Foundation, 2009).

What was measured:
[1] = Inhibition of Tel-fused LYN expressed in mouse BAF3 cells
[2] = Inhibition of Tel-fused LCK expressed in mouse BAF3 cells
[3] = Inhibition of Tel-fused SRC expressed in mouse BAF3 cells
[4] = Inhibition of Tel-fused KDR expressed in mouse BAF3 cells

Row | IC50 [1] [nM] | IC50 [2] [nM] | IC50 [3] [nM] | IC50 [4] [nM] | SMILES
1 | 272 | 52 | 5380 | 464 | Cc1ccc(C(=O)Nc2cccc(Br)c2)cc1Nc1nc2ccccc2n1-c1cc(N)ncn1 [3-(1-(6-aminopyrimidin-4-yl)-1H-benzo[d]imidazol-2-ylamino)-N-(3-bromophenyl)-4-methylbenzamide]
2 | > 10000 | > 10000 | > 10000 | > 10000 | Cc1ccc(C(=O)Nc2cccc(C(N)=O)c2)cc1Nc1nc2ccccc2n1-c1cc(N)ncn1 [3-(1-(6-aminopyrimidin-4-yl)-1H-benzo[d]imidazol-2-ylamino)-N-(3-carbamoylphenyl)-4-methylbenzamide]
3 | > 10000 | 76 | > 10000 | 260 | Cc1ccc(C(=O)Nc2cccc(Cl)c2)cc1Nc1nc2ccccc2n1-c1cc(N)ncn1 [3-(1-(6-aminopyrimidin-4-yl)-1H-benzo[d]imidazol-2-ylamino)-N-(3-chlorophenyl)-4-methylbenzamide]
4 | 437 | 157 | 4390 | 516 | COc1cccc(NC(=O)c2ccc(C)c(Nc3nc4ccccc4n3-c3cc(N)ncn3)c2)c1 [3-(1-(6-aminopyrimidin-4-yl)-1H-benzo[d]imidazol-2-ylamino)-N-(3-methoxyphenyl)-4-methylbenzamide]
5 | 16 | 16 | 202 | 52 | Cc1ccc(C(=O)Nc2cccc(C(C)(C)C)c2)cc1Nc1nc2ccccc2n1-c1cc(N)ncn1 [3-(1-(6-aminopyrimidin-4-yl)-1H-benzo[d]imidazol-2-ylamino)-N-(3-tert-butylphenyl)-4-methylbenzamide]
6 | 43 | 20 | 117 | 133 | Cc1ccc(C(=O)Nc2cccc(C(F)(F)F)c2)cc1Nc1nc2ccccc2n1-c1ncnc(NCCCN2CCN(C)CC2)n1 [4-methyl-3-(1-(4-(3-(4-methylpiperazin-1-yl)propylamino)-1,3,5-triazin-2-yl)-1H-benzo[d]imidazol-2-ylamino)-N-(3-(trifluoromethyl)phenyl)benzamide]
7 | 113 | 45 | 527 | 185 | Cc1ccc(C(=O)Nc2cccc(C(F)(F)F)c2)cc1Nc1nc2ccccc2n1-c1cc(NCCN2CCN(C)CC2)ncn1 [4-methyl-3-(1-(6-(2-(4-methylpiperazin-1-yl)ethylamino)pyrimidin-4-yl)-1H-benzo[d]imidazol-2-ylamino)-N-(3-(trifluoromethyl)phenyl)benzamide]
8 | 84 | 23 | 364 | 117 | Cc1ccc(C(=O)Nc2cccc(C(F)(F)F)c2)cc1Nc1nc2ccccc2n1-c1cc(NCCCN2CCN(C)CC2)ncn1 [4-methyl-3-(1-(6-(3-(4-methylpiperazin-1-yl)propylamino)pyrimidin-4-yl)-1H-benzo[d]imidazol-2-ylamino)-N-(3-(trifluoromethyl)phenyl)benzamide]
9 | 1230 | 337 | 1410 | 1110 | Cc1cccc(NC(=O)c2ccc(C)c(Nc3nc4ccccc4n3-c3cc(NCCCN4CCN(C)CC4)ncn3)c2)c1 [4-methyl-3-(1-(6-(3-(4-methylpiperazin-1-yl)propylamino)pyrimidin-4-yl)-1H-benzo[d]imidazol-2-ylamino)-N-m-tolylbenzamide]
10 | 642 | 418 | 398 | 1730 | CCN(CC)CCNc1cc(-n2c(Nc3cc(NC(=O)c4cccc(C(F)(F)F)c4)ccc3C)nc3ccccc32)ncn1 [N-(3-(1-(6-(2-(diethylamino)ethylamino)pyrimidin-4-yl)-1H-benzo[d]imidazol-2-ylamino)-4-methylphenyl)-3-(trifluoromethyl)benzamide]
11 | 1470 | 470 | 1290 | 1750 | Cc1ccc(NC(=O)c2cccc(C(F)(F)F)c2)cc1Nc1nc2ccccc2n1-c1cc(NCCN)ncn1 [N-(3-(1-(6-(2-aminoethylamino)pyrimidin-4-yl)-1H-benzo[d]imidazol-2-ylamino)-4-methylphenyl)-3-(trifluoromethyl)benzamide]
12 | 400 | 229 | 1700 | 590 | Cc1ccc(NC(=O)c2cccc(C(F)(F)F)c2)cc1Nc1nc2ccccc2n1-c1cc(NCCO)ncn1 [N-(3-(1-(6-(2-hydroxyethylamino)pyrimidin-4-yl)-1H-benzo[d]imidazol-2-ylamino)-4-methylphenyl)-3-(trifluoromethyl)benzamide]
13 | 1120 | 387 | 1320 | 1470 | Cc1ccc(NC(=O)c2cccc(C(F)(F)F)c2)cc1Nc1nc2ccccc2n1-c1cc(NCCCN)ncn1 [N-(3-(1-(6-(3-aminopropylamino)pyrimidin-4-yl)-1H-benzo[d]imidazol-2-ylamino)-4-methylphenyl)-3-(trifluoromethyl)benzamide]
14 | 399 | 108 | 1210 | 1360 | Cc1ccc(NC(=O)c2cccc(C(F)(F)F)c2)cc1Nc1nc2ccccc2n1-c1cc(NCCCCN(C)C)ncn1 [N-(3-(1-(6-(4-(dimethylamino)butylamino)pyrimidin-4-yl)-1H-benzo[d]imidazol-2-ylamino)-4-methylphenyl)-3-(trifluoromethyl)benzamide]
15 | 457 | 366 | 1660 | 599 | Cc1ccc(NC(=O)c2cccc(C(F)(F)F)c2)cc1Nc1nc2ccccc2n1-c1cc(NCCCCN)ncn1 [N-(3-(1-(6-(4-aminobutylamino)pyrimidin-4-yl)-1H-benzo[d]imidazol-2-ylamino)-4-methylphenyl)-3-(trifluoromethyl)benzamide]
16 | 547 | 392 | 739 | 609 | Cc1ccc(NC(=O)c2cccc(C(F)(F)F)c2)cc1Nc1nc2ccccc2n1-c1cc(N[C@H]2CC[C@H](N)CC2)ncn1 [N-(3-(1-(6-(trans-4-aminocyclohexylamino)pyrimidin-4-yl)-1H-benzo[d]imidazol-2-ylamino)-4-methylphenyl)-3-(trifluoromethyl)benzamide]
17 | 88 | 18 | 249 | 63 | Cc1ccc(NC(=O)c2cc(CN3CCN(C)CC3)n(C(C)(C)C)n2)cc1Nc1nc2ccccc2n1-c1cc(N)ncn1 [N-(3-(1-(6-aminopyrimidin-4-yl)-1H-benzo[d]imidazol-2-ylamino)-4-methylphenyl)-1-tert-butyl-5-((4-methylpiperazin-1-yl)methyl)-1H-pyrazole-3-carboxamide]
18 | 3610 | 1070 | 9690 | 6360 | Cc1ccc(NC(=O)c2cc(Cl)cc(Cl)c2)cc1Nc1nc2ccccc2n1-c1cc(N)ncn1 [N-(3-(1-(6-aminopyrimidin-4-yl)-1H-benzo[d]imidazol-2-ylamino)-4-methylphenyl)-3,5-dichlorobenzamide]
19 | 5 | 7 | 39 | 66 | Cc1ccc(NC(=O)c2cc(OC3CCN(C)CC3)cc(C(F)(F)F)c2)cc1Nc1nc2ccccc2n1-c1cc(N)ncn1 [N-(3-(1-(6-aminopyrimidin-4-yl)-1H-benzo[d]imidazol-2-ylamino)-4-methylphenyl)-3-(1-methylpiperidin-4-yloxy)-5-(trifluoromethyl)benzamide]
20 | 9 | 4 | 57 | 5 | CCN1CCN(c2cc(C(=O)Nc3ccc(C)c(Nc4nc5ccccc5n4-c4cc(N)ncn4)c3)cc(C(F)(F)F)c2)CC1 [N-(3-(1-(6-aminopyrimidin-4-yl)-1H-benzo[d]imidazol-2-ylamino)-4-methylphenyl)-3-(4-ethylpiperazin-1-yl)-5-(trifluoromethyl)benzamide]
21 | 6 | 3 | 47 | 43 | Cc1ccc(NC(=O)c2cc(N3CCN(C)CC3)cc(C(F)(F)F)c2)cc1Nc1nc2ccccc2n1-c1cc(N)ncn1 [N-(3-(1-(6-aminopyrimidin-4-yl)-1H-benzo[d]imidazol-2-ylamino)-4-methylphenyl)-3-(4-methylpiperazin-1-yl)-5-(trifluoromethyl)benzamide]
22 | 14 | 7 | 78 | 36 | Cc1ccc(NC(=O)c2cccc(C(F)(F)F)c2)cc1Nc1nc2ccccc2n1-c1cc(N)ncn1 [N-(3-(1-(6-aminopyrimidin-4-yl)-1H-benzo[d]imidazol-2-ylamino)-4-methylphenyl)-3-(trifluoromethyl)benzamide]
23 | 10 | 5 | 47 | 30 | CCN1CCN(Cc2ccc(C(=O)Nc3ccc(C)c(Nc4nc5ccccc5n4-c4cc(N)ncn4)c3)cc2Cl)CC1 [N-(3-(1-(6-aminopyrimidin-4-yl)-1H-benzo[d]imidazol-2-ylamino)-4-methylphenyl)-3-chloro-4-((4-ethylpiperazin-1-yl)methyl)benzamide]

Row | SMILES | IC50 [1] [nM] | IC50 [2] [nM] | IC50 [3] [nM] | IC50 [4] [nM]
24 | Cc1ccc(C(=O)Nc2cccc(C(C)C)c2)cc1Nc1nc2ccccc2n1-c1cc(N)ncn1 [3-(1-(6-aminopyrimidin-4-yl)-1H-benzo[d]imidazol-2-ylamino)-N-(3-isopropylphenyl)-4-methylbenzamide] | 15 | 7 | 21 | 17
25 | Cc1ccc(C(=O)Nc2cccc3cnccc23)cc1Nc1nc2ccccc2n1-c1cc(N)ncn1 [3-(1-(6-aminopyrimidin-4-yl)-1H-benzo[d]imidazol-2-ylamino)-N-(isoquinolin-5-yl)-4-methylbenzamide] | 7840 | 3240 | 7610 | 10600
26 | Cc1cccc(NC(=O)c2ccc(C)c(Nc3nc4ccccc4n3-c3cc(NCCN4CCN(C)CC4)ncn3)c2)c1 [4-methyl-3-(1-(6-(2-(4-methylpiperazin-1-yl)ethylamino)pyrimidin-4-yl)-1H-benzo[d]imidazol-2-ylamino)-N-m-tolylbenzamide] | 1660 | 762 | 1540 | 2090
